Reference: the Kinase Knowledgebase extract (Sharma et al. 2016)

Key:
[1] = target: CDK2 (human) (UniProt P24941); assay: Enzyme Assay
[2] = target: CDK2 (human) (UniProt P24941); assay: Enzyme Assay; remark: listed apart in the source

SMILES	Kd [1] [nM]	Kd [2] [nM]
NS(=O)(=O)Cc1cccc(Nc2ncnc(N3CCc4ncsc4C3)n2)c1	< 100	< 100
NS(=O)(=O)Cc1cccc(Nc2ncnc(N3CCCn4nccc43)n2)c1	< 100	< 100
NS(=O)(=O)Cc1cccc(Nc2ncnc(N3CCCc4ccccc43)n2)c1	100 to 1000	
NS(=O)(=O)Cc1cccc(Nc2ncnc(N3CCc4nc[nH]c4C3)n2)c1	< 100	
NS(=O)(=O)Cc1cccc(Nc2ncnc(N3CCc4ncccc4C3)n2)c1	100 to 1000	100 to 1000
NS(=O)(=O)Cc1cccc(Nc2ncnc(N3CCc4ccccc43)n2)c1	100 to 1000	
NS(=O)(=O)Cc1cccc(Nc2ncnc(N3CCCC3c3ccccc3)n2)c1 (configuration not stated)		> 10000
NS(=O)(=O)Cc1cccc(Nc2ncnc(N3Cc4ccncc4C3)n2)c1	100 to 1000	
NS(=O)(=O)Cc1cccc(Nc2ncnc(N3Cc4cn[nH]c4C3)n2)c1		100 to 1000

Results, then the molecule that gave them:

Kd [1] [nM]	Kd [2] [nM]	SMILES
> 10000		NS(=O)(=O)Cc1cccc(Nc2ncnc(N3CCC[C@@H]3COCc3ccccc3)n2)c1
> 10000	> 10000	NS(=O)(=O)Cc1cccc(Nc2ncnc(N3CCCCC3)n2)c1
> 10000		NS(=O)(=O)Cc1cccc(Nc2ncnc(N3CCC[C@H]3CO)n2)c1
> 10000		COC[C@@H]1CCCN1c1ncnc(Nc2cccc(CS(N)(=O)=O)c2)n1
> 10000		NS(=O)(=O)Cc1cccc(Nc2ncnc(N3CCC[C@@H]3CN3CCCC3)n2)c1
> 10000		COC[C@H]1CCCCN1c1ncnc(Nc2cccc(CS(N)(=O)=O)c2)n1
> 10000		COC[C@H]1CCN1c1ncnc(Nc2cccc(CS(N)(=O)=O)c2)n1
	> 10000	CN(C)CCC1CCCCN1c1ncnc(Nc2cccc(CS(N)(=O)=O)c2)n1 (configuration not stated)
> 10000		NS(=O)(=O)Cc1cccc(Nc2ncnc(N3CCC[C@@H]3CO)n2)c1
